We go through 8 compounds from patent US5756763A, “Pyrrolidine derivatives” (Zaidan Hojin Biseibutsu Kagaku Kenkyukai, priority 1993, dated 1998).

One test concerns the target T1, prolyl endopeptidase (Sus scrofa, UniProt P23687).
T1 construct: swine kidney-derived prolyl endopeptidase; from tissue; host or cells: swine kidney
The test is described as follows: Enzyme inhibitory action on swine kidney-derived prolyl endopeptidase (Z-Gly-Pro-β-naphthylamide substrate). The format is biochemical. Conditions: for IC50: swine kidney prolyl endopeptidase, 0.1 mM substrate, 37° C., 30 minutes, pH 7.5. The procedure:
(§1) Using 0.1 mM of benzyolxycarbonylglycylproline-β-naphthylamide as substrate and swine kidney-derived prolyl endopeptidase as enzyme, the enzyme was acted on the substrate at 37° C. for 30 minutes in 0.025 M Tris(hydroxymethyl)methane amine-hydrochloric acid (pH 7.5) solution. Fast Garnet was added to form a color and absorbance was measured at 525 nm. The inhibitory activity is expressed in terms of concentration required for 50% inhibition (IC50).

For test [1], the system named is prolyl endopeptidase in mouse brain. The test can be described thus: Prolyl endopeptidase inhibition activity in mouse brain after intravenous administration. Format: in vivo, mouse (male ddy strain). Conditions: 30 mg/kg i.v., 30 minutes after administration, control = 100. As for the experimental part: as §1
Each of the compounds of the present invention was dissolved in physiological saline or physiological saline added with a surfactant. The solution was intravenously administered to male ddy strain mice (3 in one group) at a dose of 30 mg/kg. For control, physiological saline or a surfactant alone was intravenously given to 3 mice in a similar manner.
Thirty minutes after administration, the animal was bled to death and the whole brain was excised out. Each brain was homogenized with 20-fold volume of 0.1M phosphate buffer containing 2 mM DTT and the homogenate was centrifuged at 3000 g for 20 minutes. The prolyl endopeptidase in the resulting supernatant was determined as in Experiment 1, as β-naphthylamine isolated. When the mean enzyme activity in the mouse brain for control is made 100 (β-naphthylamine value: 3.88±0.26), the residual enzyme activity was determined when the compounds of the present invention was administered.

T1 sequence (P23687 whole entry): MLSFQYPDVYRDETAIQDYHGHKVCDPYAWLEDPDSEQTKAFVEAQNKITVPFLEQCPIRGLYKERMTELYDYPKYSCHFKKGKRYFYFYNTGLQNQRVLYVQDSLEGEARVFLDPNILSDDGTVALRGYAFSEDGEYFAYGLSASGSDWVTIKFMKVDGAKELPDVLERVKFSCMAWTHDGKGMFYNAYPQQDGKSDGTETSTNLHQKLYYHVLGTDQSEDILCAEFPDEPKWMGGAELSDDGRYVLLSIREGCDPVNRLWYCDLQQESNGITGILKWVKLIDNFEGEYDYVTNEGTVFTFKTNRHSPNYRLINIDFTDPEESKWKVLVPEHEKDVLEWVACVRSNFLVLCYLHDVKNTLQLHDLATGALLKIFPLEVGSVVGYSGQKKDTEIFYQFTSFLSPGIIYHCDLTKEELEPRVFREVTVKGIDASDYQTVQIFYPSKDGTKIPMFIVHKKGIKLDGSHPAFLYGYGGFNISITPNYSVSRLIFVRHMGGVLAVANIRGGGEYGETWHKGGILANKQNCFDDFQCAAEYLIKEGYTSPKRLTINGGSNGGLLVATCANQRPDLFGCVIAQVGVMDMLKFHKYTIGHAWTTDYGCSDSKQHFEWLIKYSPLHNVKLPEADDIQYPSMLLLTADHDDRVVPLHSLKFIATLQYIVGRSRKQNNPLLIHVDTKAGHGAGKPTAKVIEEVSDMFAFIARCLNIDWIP

Usually IC50 stands for the concentration that gives 50% inhibition. A high value points to weaker potency. `O=C(NC1CCCCC1)C(=O)C1CCCN1C(=O)C(Cc1ccccc1)NC(=O)c1ccccn1` (stereo not drawn) [Example 26, N-Cyclohexyl-2-oxo-2-[2-(1-(N-(2-pyridylcarbonyl)phenylalanyl)pyrrolidinyl)]acetamide] gave an IC50 against prolyl endopeptidase of 1.78 nM. Further, the “Residual Enzyme Activity (%)” value in test [1] is reported as 5.7%.

`O=C(NC1CCCCC1)C(=O)C1CCCN1C(=O)c1ccc2ccccc2c1` (stereo not drawn) [Example 64, N-Cyclohexyl-2-oxo-2-[2-(1-(2-naphthoyl)pyrrolidinyl)]acetamide] had an IC50 against prolyl endopeptidase of 21.7 nM. For the same compound, in test [1], the “Residual Enzyme Activity (%)” value stood at 50.5%. For `O=C(NC1CCCCC1)C(=O)C1CCCN1C(=O)c1ccc(CN2CCOCC2)cc1` (stereo not drawn) [Example 84, N-Cyclohexyl-2-oxo-2-[2-(1-(4-morpholinomethylbenzoyl)pyrrolidinyl)]acetamide], in that order: 72.5 nM and 50.3%. `O=C(NC1CCCCC1)C(=O)C1CCCN1C(=O)c1ccccn1` (stereo not drawn) [Example 74, N-Cyclohexyl-2-oxo-2-[2-(1-(2-pyridylcarbonyl)pyrrolidinyl)]acetamide] gave an IC50 at prolyl endopeptidase of 97.1 nM. For `O=C(NC(Cc1ccccc1)C(=O)N1CCCC1C(=O)C(=O)NC1CCCCC1)OCc1ccccc1` (stereo not drawn) [Example 45, N-Cyclohexyl-2-oxo-2-[2-(1-(N-benzyloxycarbonylphenylalanyl)pyrrolidinyl)]acetamide], on prolyl endopeptidase, the IC50 was 2.37 nM. The compound `CC(=O)NC(Cc1ccccc1)C(=O)N1CCCC1C(=O)C(=O)NC1CCCCC1` (stereo not drawn) [Example 118, N-Cyclohexyl-2-oxo-2-[2-(1-(N-acetylphenylalanyl)pyrrolidinyl)]acetamide] gave an IC50 on prolyl endopeptidase of 2.03 nM. Still for that read-out and setting: the same measure for `CC(C)(C)OC(=O)NC(Cc1ccccc1)C(=O)N1CCCC1C(=O)C(=O)NC1CCCCC1` (stereo not drawn) [Example 15, N-Cyclohexyl-2-oxo-2-[2-(1-(N-t-butoxycarbonylphenylalanyl)pyrrolidinyl)]acetamide]: 3.18 nM. In the case of `O=C(NC1CCCCCCC1)C(=O)C1CCCN1C(=O)C(Cc1ccccc1)NC(=O)c1cccc(Oc2ccccc2)c1` (stereo not drawn) [Example 113, N-Cyclooctyl-2-oxo-2-[2-(1-(N-(3-phenoxybenzoyl)phenylalanyl)pyrrolidinyl)]acetamide], the “prolyl endopeptidase inhibition activity (in words)” value on prolyl endopeptidase (in vitro, qualitative statement) is given as “potent inhibition activity on almost the same level”. On prolyl endopeptidase, this compound showed an IC50 of 1.59 nM.
